Laboratory results: US20060122264A1, “Stem cell invasion inhibitor” (Yasumi Uchida, etal, priority 2003, published 2006)
“Also recorded” adds a separate entry of the source. Like-named read-outs stand apart in the source and are kept apart here. Marks after values point to notes of the source that are not given here.

Experiments:
coronary artery stenosis [1] = experiment: Coronary artery stenosis after balloon angioplasty, local administration (coronary angiography, azan staining); assay type: in vivo, beagle dogs; conditions: for stenosis as determined through coronary angiography: compared with non-administration group; for Stenosis degree (%): coronary angiography, 5% drug 0.5 mL injected locally after balloon dilation
From the text: (§1) Nembutal-anesthetized beagle dogs were employed for the test. Each of the animals was endotracheally intubated, and ventilated with air. Subsequently, an 8-French sheath was inserted into the right common carotid artery. An 8-French guide catheter was inserted through the sheath, followed by coronary angiography. Subsequently, a clinically employed balloon catheter for coronary angioplasty (outer diameter: 3 mm, length: 20 mm) was inserted, and then the balloon was expanded at 9 atm, to thereby dilate a distal to intermediate portion of the anterior descending branch of the coronary artery. Through this procedure, the blood vessel wall was damaged. Subsequently, the aforementioned perforated balloon catheter equipped with an injection syringe containing 5% phenolsulfonphthalein (0.5 mL) or 5% bromosulfophthalein (0.5 mL) was guided by a guide wire and inserted into the above-dilated portion, and the phthalein compound (drug) was injected into the blood vessel wall at 3 atm. After completion of injection of the drug, the catheter was removed, and then the cervical portion through which the catheter had been inserted was sutured, followed by administration of an antibiotic. After recovery from anesthesia, the animal was cared for one week to one month, and was again subjected to coronary angiography. One week to one month later, the animal was anesthetized to stop cardiac beat and, the heart was removed from the animal, and then subjected to formalin fixation, followed by preparation of a microscopic sample of the above-dilated portion. Subsequently, the thus-prepared sample was subjected to azan staining and various immunostainings.

[2] = test system: dendritic cells in the coronary artery wall; experiment: Prevention of cell invasion associated with coronary angioplasty, local administration: dendritic cell count (CD40 immunostaining); assay type: in vivo, beagle dogs; conditions: for Number of dendritic cells (250 × 250 μm^2): 5% drug 0.5 mL injected locally after balloon dilation; for invasion of dendritic cells: CD40 antibody immunostaining
From the text: as §1
(§2) In connection with this finding, in the above-immunostained sample, stem cells per unit area (250×250 um^2) were counted at the highest-cell-density site of the intima, media, or adventitia. Comparison (in terms of the number of stem cells) was performed between drug administration groups and a non-administration group (control group) in which merely saline (0.5 mL) was injected into a portion of the coronary artery dilated with a balloon, and P<0.05 (by Student t test) was regarded as a significant difference.
Dendritic cells, which are inflammatory cells, were subjected to immunostaining with a CD40 antibody.

[3] = test system: thrombus in the right common carotid artery; experiment: Arterial thrombosis, carotid intima damaged by Dotter balloon catheter; assay type: in vivo, dogs; conditions: 10 mg/kg intravenously; for Average thrombus weight: wet weight thirty minutes after intima damage
Protocol: Anesthetized dogs were employed for the test. Phenolsulfonphthalein or bromosulfophthalein (10 mg/kg, which is 100 times the amount clinically used for renal function testing) was intravenously administered to each of the animals, and the intima of the right common carotid artery was damaged by means of a Dotter balloon catheter. Thirty minutes later, the common carotid artery was extirpated, and the wet weight of thrombus present in the carotid artery was measured. The thus-measured wet weight was compared with that in the case of the control group.

[4] = test system: human coronary artery smooth muscle cells; experiment: Proliferation of human coronary artery smooth muscle cells; assay type: cell-based; conditions: for number of cells after culturing for three days: Smooth muscle cells
Protocol: (§3) Human umbilical vein endothelial cells (HUBEC) (1×10^5/cm^2) were inoculated into a medium containing MCDB-104, 10% FBS, ECGF (100 ng/mL), EGF (10 ng/mL), and heparin (100 ng/mL), and phenolsulfonphthalein or bromosulfophthalein was added to the medium, followed by culturing for three days. Thereafter, the resultant cells were counted, and the number of the cells was compared with that in the case where no drug was added to the medium. In a manner similar to that described above, human coronary artery smooth muscle cells (1×10^5/cm^2) were cultured in a medium containing MCDB-104, 10% FBS, and EGF (10 ng/mL) for three days, and the resultant cells were counted.

[5] = test system: β-actin-positive vascular stem cells in coronary artery; experiment: Insertion of drug-eluting stent into coronary artery: stem cell density; assay type: in vivo, beagle dogs; conditions: two-layer-coated drug-eluting stent (inner PLGA 7510, outer PLA 0010), one month
From the text: (§4) Nembutal-anesthetized beagle dogs were employed for the test. While each of the animals was ventilated with air, an 8-French guide catheter was inserted through the right common carotid artery, followed by left coronary angiography. Subsequently, a drug-eluting stent (inner layer: PLGA 7510 containing 50% phenolsulfonphthalein, outer layer: PLA 0010 containing 50% phenolsulfonphthalein) was inserted into the left circumflex branch, and then expanded at 9 atm, followed by placement of the stent. After recovery from anesthesia, the animal was bred for one month, and then was again subjected to coronary angiography. The degree of stenosis was measured at the most stenotic site of the stent-inserted portion, and the thus-measured stenosis degree was compared with that in the case of a non-eluting stent group (i.e., a group in which a stent that is not coated with a drug was inserted). Subsequently, the heart was extirpated from the animal, and then subjected to formalin fixation. Thereafter, a microscopic sample of the stent-inserted portion was prepared, followed by staining of vascular smooth muscle β-actin. Stem cells per unit area were counted at the highest-cell-density site of the intima, media, or adventitia of the above-stained sample. Comparison (in terms of stem cell density) was performed between the drug-eluting stent group and the non-eluting stent group (i.e., the group in which a stent that is not coated with a drug was inserted).

[6] = test system: β-actin-positive stem cells in the coronary artery wall; experiment: Prevention of stem cell invasion associated with coronary angioplasty, local administration by pored balloon catheter: stem cell count; assay type: in vivo, beagle dogs; conditions: for stem cell density compared with the non-administration group: at all the membranes
From the text: as §1, §2

[7] = test system: Human umbilical vein endothelial cells (HUBEC); experiment: Proliferation of human vascular endothelial cells; assay type: cell-based; conditions: for number of cells after culturing for three days: Endothelial cells
Protocol: as §3

[8] = test system: β-actin-positive stem cells at the talc-administered site; experiment: Inflammatory stenosis caused by talc at the coronary artery adventitia: stem cell density; assay type: in vivo, beagle dogs; conditions: for Number of stem cells (250 × 250 μm^2): one month
Protocol: (§5) Anesthetized beagle dogs were employed for the test. While each of the animals was ventilated with air, thoracotomy was performed at the left fifth intercostal space, to thereby expose the heart. Subsequently, talc powder was administered to the vicinity of the adventitia at an intermediate portion of the anterior descending branch of the left coronary artery, which caused inflammation. Subsequently, the thoracotomy site was closed, and phenolsulfonphthalein was injected under conditions similar to those of the test described above in (A) by use of a perforated balloon equipped with an injection syringe containing the drug. After recovery from anesthesia, the animal was bred for one month, and then subjected to coronary angiography. Thereafter, the heart was extirpated from the animal, and then subjected to formalin fixation. A microscopic sample of the talc-administered portion was prepared, and the sample was subjected to β-actin staining, followed by determination of the density of β-actin-positive cells (i.e., stem cells).

coronary artery stenosis [9] = experiment: Insertion of drug-eluting stent into coronary artery: degree of stenosis; assay type: in vivo, beagle dogs; conditions: one month, most stenotic site of stent-inserted portion
From the text: as §4, with “Comparison (in terms of stem cell density) was performed between the drug-eluting stent group and the non-eluting stent group (i.e., the group in which a stent that is not coated with a drug was inserted).” left out

[10] = test system: stenosis at the talc-administered site; experiment: Inflammatory stenosis caused by talc at the coronary artery adventitia: degree of stenosis; assay type: in vivo, beagle dogs
Protocol: as §5

[11] = International Publication WO 01/93871; cited from earlier work
[12] = test system: human coronary artery smooth muscle cells; conditions: International Publication WO 01/93871; cited from earlier work
[13] = Adventitia, 5% drug 0.5 mL injected locally after balloon dilation
[14] = Intima, 5% drug 0.5 mL injected locally into vessel wall after balloon dilation, per unit area at highest-cell-density site
[15] = Media, 5% drug 0.5 mL injected locally after balloon dilation

Structure (SMILES)	stenosis as determined through coronary angiography (coronary artery stenosis [1])	Stenosis degree (%) (coronary artery stenosis [1])	Number of dendritic cells (250 × 250 μm^2) ([2]; Adventitia)	invasion of dendritic cells [2]	Number of dendritic cells (250 × 250 μm^2) ([2]; Intima)	Number of dendritic cells (250 × 250 μm^2) ([2]; Media)	effect of inhibiting thrombus formation (antithrombotic effect) [3]	Average thrombus weight [3] [mg]	effect of inhibiting proliferation of vascular smooth muscle cells [4]	number of cells after culturing for three days ([4]; Concentration (mol) 10^−4)	number of cells after culturing for three days ([4]; Concentration (mol) 10^−5)	number of cells after culturing for three days ([4]; Concentration (mol) 10^−6)	number of cells after culturing for three days ([4]; Concentration (mol) 10^−7)	number of cells after culturing for three days ([4]; Concentration (mol) 10^−8)	Number of stem cells (250 × 250 μm^2) ([5]; Adventitia)	number of cells after culturing for three days ([7]; Concentration (mol) 10^−4)	number of cells after culturing for three days ([7]; Concentration (mol) 10^−5)	number of cells after culturing for three days ([7]; Concentration (mol) 10^−6)	number of cells after culturing for three days ([7]; Concentration (mol) 10^−7)	number of cells after culturing for three days ([7]; Concentration (mol) 10^−8)	also measured
O=S1(=O)OC(c2ccc(O)cc2)(c2ccc(O)cc2)c2ccccc21 [Phenolsulfonphthalein, phenolsulfonphthalein]	significantly inhibited	10.1 ± 2.5	1.0 ± 0.5* 250 × 250 μm^2	inhibited	0.2 ± 0.0* 250 × 250 μm^2	0.0 ± 0.0* 250 × 250 μm^2	no effect; also recorded: nor antithrombotic effect	195	no effect	3.65	3.88	4.17	4.02	4.08	16.0 ± 7.1* 250 × 250 μm^2	3.37	3.40	3.35	3.43	3.47	stenosis due to intimal hyperplasia (FIG. 2) (coronary artery stenosis [1]; four weeks after dilation, azan staining): only slight intimal hyperplasia; also recorded: only slightly observed; Number of stem cells (250 × 250 μm^2) ([5]; Intima): 7.1 ± 3.2** 250 × 250 μm^2; Number of stem cells (250 × 250 μm^2) ([5]; Media): 9.0 ± 4.0* 250 × 250 μm^2; Number of stem cells [6, 13]: 19.3 ± 6.3* 250×250 um^2; Number of stem cells [6, 14]: 11.0 ± 4.2* 250×250 um^2; Number of stem cells [6, 15]: 10.1 ± 2.8* 250×250 um^2; stem cell density compared with the non-administration group [6]: significantly lower; cell invasion (FIG. 2) ([6]; four weeks after dilation): less observed; cell invasion from the adventitia into the intima (FIG. 1) ([6]; one week after dilation with a balloon, azan staining): virtually no cell invasion is observed; also recorded: not observed; effect of inhibiting proliferation of human vascular endothelial cells (HUBEC) [7]: no effect; β-actin-positive cell density compared with the non-administration group [8]: significantly lower; Number of stem cells (250 × 250 μm^2) ([8]; Adventitia): 12.2 ± 3.4* 250 × 250 μm^2; Number of stem cells (250 × 250 μm^2) ([8]; Intima): 2.0 ± 0.8* 250 × 250 μm^2; Number of stem cells (250 × 250 μm^2) ([8]; Media): 2.6 ± 0.7* 250 × 250 μm^2; Stenosis degree (%) (coronary artery stenosis [9]): 0 ± 0.0 %; degree of stenosis [10]: significantly lower; Stenosis degree (%) ([10]; one month, coronary angiography): 10.4 ± 2.7 %
Cc1cc(-c2ccc(/N=N/c3ccc4c(S(=O)(=O)O)cc(S(=O)(=O)O)c(N)c4c3O)c(C)c2)ccc1/N=N/c1ccc2c(S(=O)(=O)O)cc(S(=O)(=O)O)c(N)c2c1O [Evans Blue]										0.07***	0.34**	1.00*	3.50*	3.89		0.12**	0.98*	1.54*	3.11*	3.50	antithrombotic effect [11]: antithrombotic effect; effect of inhibiting proliferation of vascular smooth muscle cells [12]: has the effect of inhibiting proliferation of vascular smooth muscle cells
O=C1OC(c2ccc(O)c(S(=O)(=O)O)c2)(c2ccc(O)c(S(=O)(=O)O)c2)c2c(Br)c(Br)c(Br)c(Br)c21 [Bromosulfophthalein, bromosulfophthalein]	significantly inhibited	33.5 ± 10.4	3.6 ± 0.9* 250 × 250 μm^2	inhibited	1.6 ± 0.4* 250 × 250 μm^2	1.1 ± 0.1 250 × 250 μm^2	no effect; also recorded: nor antithrombotic effect	210	no effect	3.43	3.78	4.19	4.14	4.24	20.3 ± 9.9* 250 × 250 μm^2	3.44	3.43	3.52	3.59	3.34	Number of stem cells (250 × 250 μm^2) ([5]; Intima): 8.8 ± 2.6** 250 × 250 μm^2; Number of stem cells (250 × 250 μm^2) ([5]; Media): 8.6 ± 5.0* 250 × 250 μm^2; Number of stem cells [6, 13]: 22.0 ± 6.2* 250×250 um^2; Number of stem cells [6, 14]: 14.8 ± 6.1* 250×250 um^2; Number of stem cells [6, 15]: 16.1 ± 4.8 250×250 um^2; stem cell density compared with the non-administration group [6]: significantly lower; effect of inhibiting proliferation of human vascular endothelial cells (HUBEC) [7]: no effect; Stenosis degree (%) (coronary artery stenosis [9]): 11.2 ± 3.1 %
